Assay results reported in US9192653B2, “Protecting and repairing cartilage and musculoskeletal soft tissues” (University of Rochester, priority 2008, dated 2015).

Columns and labels:
[1] = test system: chick chondrocytes; test: Continuous 48 hr exposure of chick chondrocytes in culture; type: cell-based; conditions: for smurf2 expression: 48 hr chronic, continuous exposure, chick chondrocytes
Method: FIG. 3C is a histogram showing levels of Smurf2 mRNA relative to control in chick sternal chondrocytes cultured with TGFβ, BMP-2, PTHrP, or dibutyryl cyclic adenosine monophosphate (dbcAMP) following a chronic, 48 hour exposure.
The Western blots show pSmad3 and pSmad2 levels in chick sternal chondrocytes cultured in the presence or absence of TGFβ, PTHrP and/or a Smurf2 RNAi (Sf2 RNAi) for 48 hours.
Without meaning to be limited by theory, this may have been due to down-regulation of TGF-β signaling by smurf2, allowing BMP signals to drive hypertrophy.

[2] = test system: articular cartilage in mice; test: Murine knee injury model (severe injury), daily injection, Alcian Blue histology; type: in vivo
Method: Mice were anesthetized and an arthrotomy of the knee was performed. The medial collateral ligament was surgically transected, and the anterior horn of the medial meniscus was surgically removed to create a mild knee injury. For the severe injury group, the anterior cruciate ligament was also transected, causing severe joint instability in combination with the mild meniscal and medial collateral ligament injuries. The knee was surgically closed and animals were allowed free movement subsequently. One group with the severe combined injuries, as the most difficult case for cartilage protection, was treated daily with injections of teriparatide. After sacrifice at appropriate time points, the knee joints were removed, decalcified, embedded in paraffin, and 4-micron thick sections were stained with Alcian Blue to produce photomicrographs as shown in FIG. 4.

[3] = test system: cartilage; test: Delayed treatment of osteoarthritic mice 8 weeks after joint surgery; type: in vivo; conditions: daily injections for 4 weeks after 8 week delay post surgery
Method: Delayed treatment with teriparatide or PTH reduces the amount of cartilage loss as compared to treatment with saline. Mice were allowed to develop osteoarthritis for 8 weeks following joint surgery, as described above. After 8 weeks, the mice were treated for 4 weeks with daily injections of teriparatide or PTH, a delayed treatment regimen.

[4] = test system: white zone meniscal tears; test: Rabbit white zone meniscal tear, treatment after surgery; type: in vivo; conditions: treated for 4 weeks after surgery, versus saline
Method: FIGS. 12A and 12B show daily treatment with teriparatide for 4 weeks following meniscal surgery results in preliminary meniscal healing. […] Rabbits underwent surgery to produce white zone meniscal tears. The rabbits were treated with either saline (FIG. 12A) or teriparatide (FIG. 12B) after surgery for 4 weeks.

[5] = test system: articular cartilage; test: Immediate treatment after meniscus/ligament injury (osteoarthritis model); type: in vivo, mice; conditions: for proteoglycan in the articular cartilage (Alcian Blue staining intensity): daily injection for 4 weeks starting immediately after surgery; for cartilage loss (histomorphometric joint cartilage area): daily injection for 12 weeks starting immediately after surgery
Method: Treatment with teriparatide or PTH reduces the amount of cartilage loss as compared to treatment with saline. Mice exposed to sham surgery or meniscus/ligament injury, a model for osteoarthritis, were treated, starting immediately after surgery, with saline, teriparatide, or PTH for 4 weeks. […] Mice exposed to sham surgery or meniscus/ligament injury were treated, starting immediately after surgery, with saline, teriparatide, or PTH for 12 weeks.

[6] = test system: Rabbit meniscal cells; test: Cultured rabbit meniscal cells, mRNA expression; type: cell-based
Method: Rabbit meniscal cells were isolated from rabbit menisci and cultured. Cultured meniscal cells were treated with PTH for 1 or 3 days.

Molecule | smurf2 expression [1] | development of cartilage degeneration and osteoarthritis ([2]; severe injury (ACL and MCL transection plus medial menisectomy), 4, 8, 12 weeks) | cellular repair activities and hypertrophy or maturational changes ([2]; severe knee injury) | cartilage loss and regeneration versus saline control [3] | meniscal healing (defect, cellularity, proteoglycan content) [4] | proteoglycan in the articular cartilage (Alcian Blue staining intensity) [5] | cartilage loss (histomorphometric joint cartilage area) [5] | pSmad2 and pSmad3 levels (Western blot) ([1]; chick sternal chondrocytes, 48 hours, reversed by Smurf2 siRNA) | cyclin D1 mRNA ([6]; after 3 days of treatment) | type I collagen mRNA ([6]; treated for 1 or 3 days)
CCCC(=O)Nc1ncnc2c1ncn2[C@@H]1O[C@@H]2COP(=O)(O)O[C@H]2[C@H]1OC(=O)CCC [dbcAMP, dibutyryl cyclic adenosine monophosphate] | stimulated smurf2 expression |  |  |  |  |  |  |  |  | 
CC[C@H](C)[C@H](NC(=O)[C@H](CCC(=O)O)NC(=O)[C@H](CO)NC(=O)[C@@H](NC(=O)[C@@H](N)CO)C(C)C)C(=O)N[C@@H](CCC(N)=O)C(=O)N[C@@H](CC(C)C)C(=O)N[C@@H](CCSC)C(=O)N[C@@H](Cc1cnc[nH]1)C(=O)N[C@@H](CC(N)=O)C(=O)N[C@@H](CC(C)C)C(=O)NCC(=O)N[C@@H](CCCCN)C(=O)N[C@@H](Cc1cnc[nH]1)C(=O)N[C@@H](CC(C)C)C(=O)N[C@@H](CC(N)=O)C(=O)N[C@@H](CO)C(=O)N[C@@H](CCSC)C(=O)N[C@@H](CCC(=O)O)C(=O)N[C@@H](CCCN=C(N)N)C(=O)N[C@H](C(=O)N[C@@H](CCC(=O)O)C(=O)N[C@@H](Cc1c[nH]c2ccccc12)C(=O)N[C@@H](CC(C)C)C(=O)N[C@@H](CCCN=C(N)N)C(=O)N[C@@H](CCCCN)C(=O)N[C@@H](CCCCN)C(=O)N[C@@H](CC(C)C)C(=O)N[C@@H](CCC(N)=O)C(=O)N[C@@H](CC(=O)O)C(=O)N[C@H](C(=O)N[C@@H](Cc1cnc[nH]1)C(=O)N[C@@H](CC(N)=O)C(=O)N[C@@H](Cc1ccccc1)C(=O)O)C(C)C)C(C)C [teriparatide] |  | dramatically retards the development of cartilage degeneration and osteoarthritis | stimulated cellular repair activities with suppression of hypertrophy or maturational changes | reduction in the loss of cartilage and regeneration of lost cartilage | narrowing of the defect with increased cellularlity and proteoglycan content | upregulation of proteoglycan | reduction in cartilage loss |  |  | 
parathyroid hormone-related peptide [PTHrP] | stimulated smurf2 expression |  |  |  |  |  |  | reduction of pSmad2 and pSmad3 |  | 
parathyroid hormone (protein, listed as Homo sapiens, Parathyroid Hormone, Parathyroid hormone, ligand of the PTH/PTHrP receptor (PTHR1)) MIPAKDMAKVMIVMLAICFLTKSDGKSVKKRSVSEIQLMHNLGKHLNSMERVEWLRKKLQDVHNFVALGAPLAPRDAGSQRPRKKEDNVLVESHEKSLGEADKADVNVLTKAKSQ |  |  |  | reduction in the loss of cartilage and regeneration of lost cartilage |  | upregulation of proteoglycan | reduction in cartilage loss |  | upregulation of mRNA for cyclin D1 | upregulation of mRNA for type I collagen
